Source: US9861640B2, “Medicament for treatment of Alzheimer's disease” (KEMPHYS LTD., priority 2013, dated 2018)

Key:
Cd36 mRNA = assay: RT-PCR of Cd36 mRNA in brains of APP23 mice; type: in vivo, mouse; conditions: Am80 0.5 and/or HX630 5 mg/kg/d, day 18
Procedure: APP23 mice begin forming amyloid deposits when they are 6 months old, but memory deficits in the MWM test appear quite early (before 3 months of age). Here, we used 8.5-month-old male APP23 mice and their WT littermates (C57BL/6J). We used stratified random sampling to divide mice (four to six per cage) into four groups to equalize the mean body weight of the study groups: mice given 0.5 mg/kg/d Am80, those given 5 mg/kg/d HX630, those given the mixture of 0.5 mg/kg/d Am80 and 5 mg/kg/d HX630, and those given the vehicle. Am80 and HX630 were suspended in 0.5% (w/v) carboxymethylcellulose solution and were orally administered to mice at 0.5 mg/kg (Am80) or 5 mg/kg (HX630) for 17 consecutive days (once daily at 18:00). Control animals received the same volume of 0.5% (w/v) carboxymethylcellulose solution orally, without the other compounds. […]
For semi-quantitative RT-PCR analysis, PCRs were carried out with Quick Taq HS DyeMix (DTM-101; Toyobo Co. Ltd., Osaka, Japan). […] Semi-quantitative PCR consisted of an initial denaturation cycle at 94° C. for 2 min, followed by 40 cycles for Cd36, 35 cycles for Mme, 30 cycles for Ide, and 26 cycles for β-actin. […] Densitometric quantification was done with the Image Gauge software program (Fuji Photo Film Co., Tokyo, Japan). […]

rat primary microglia = assay: Clearance of 125I-labeled oligomeric Aβ1-42 by rat primary microglia; type: cell-based; conditions: 5 μM each 48 h, then 6 h with 125I-o-Aβ1-42 1 μg/ml, vs vehicle-treated cells
Excerpt: Primary microglia (type 1) were harvested from primary mixed glial cell cultures prepared from neonatal Wistar rat pups, as previously reported. Mouse microglial cell line MG5 and mouse glial cell line A1 were maintained as previously described. Mouse neuroblastoma cell line N1E-115 and Neuro 2a (American Type Culture Collection, Manassas, Va., USA) were maintained in Dulbecco's modified Eagle's medium (DMEM) supplemented with 10% fetal bovine serum (FBS), 20 U/ml penicillin (Invitrogen, Gaithersburg, Md., USA), and 20 μg/ml streptomycin (Invitrogen). Primary rat microglia were treated with Am80 (5 μM) and/or HX630 (5 μM) in the presence and absence of GW9662 (10 μM) for 48 h in Eagle's MEM supplemented with 10% FBS and 0.2% glucose. MG5 cells and A1 cells were treated with Am80 (5 μM) and/or HX630 (5 μM) for 48 h in DMEM containing 10% FBS. N1E-115 cells were treated with Am80 (5 μM) and/or HX630 (5 μM) for 5 days in DMEM containing 2% FBS.
^125I-Labeled oligomeric Aβ1-42 (o-Aβ1-42) was prepared as described. Cells were cultured in 24-well plates for 48 h in Eagle's MEM supplemented with 10% FBS in the presence or absence of Am80 (5 μM) and HX630 (5 μM). After the 48-h treatment, the cells were washed twice with labeling medium (DMEM containing 3% BSA) and then incubated with ^125I-labeled o-Aβ1-42 for 6 h at 37° C. Following the 6-h incubation, medium was removed from each well, and soluble radioactivity in TCA (degraded and extracellularly released peptide fragments) was determined as an index of Aβ degradation in the medium as described previously. The Aβ degradation activity may thus include both receptor-mediated phagocytic activity and extracellular protease-mediated degradation. Cells were washed three times with PBS, then lysed with 0.4 ml of 0.1 M NaOH for 30 min at 37° C., and cell-associated (including cell-incorporated) radioactivity and cell proteins were determined with an autogamma counter and the BCA Protein Assay Reagent (Pierce), respectively. We could not determine the activity of IDE-dependent degradation in this medium, because the incubation medium was replaced with labeling medium prior to incubation with ^[…].

Aβ40 and Aβ42 = Aβ40 and Aβ42 sandwich ELISA of TBS-soluble and TBS-insoluble brain fractions; type: in vivo, mouse; conditions: Am80 alone 3 mg/kg/d or 6 mg/kg/d for 17 days, oral
Procedure: APP23 mice begin forming amyloid deposits when they are 6 months old, but memory deficits in the MWM test appear quite early (before 3 months of age). Here, we used 8.5-month-old male APP23 mice and their WT littermates (C57BL/6J). We used stratified random sampling to divide mice (four to six per cage) into four groups to equalize the mean body weight of the study groups: mice given 0.5 mg/kg/d Am80, those given 5 mg/kg/d HX630, those given the mixture of 0.5 mg/kg/d Am80 and 5 mg/kg/d HX630, and those given the vehicle. […]
The TBS-soluble (TBS-extractable) fraction and the TBS-insoluble (but guanidine HC1-extractable) fraction from the cerebral hemispheres or hippocampus were prepared as described previously. The amounts of Aβ40 and Aβ42 in each fraction were determined by using sandwich ELISAs (294-64701 and 290-62601 (Wako), respectively), according to the manufacturer's instructions. The amounts of tumor necrosis factor-α (TNF-α) and IL-4 in the TBS-soluble fractions of cerebral cortex and hippocampus were analyzed by means of sandwich ELISAs KMC3012 (Invitrogen) and ELM-IL-4-001 (RayBiotech, Inc., Norcros, Ga., USA), respectively, according to the manufacturer's instructions. Protein concentrations were determined with the Bradford Protein Assay Reagent (Thermo Fisher Scientific Inc., Rockford, Ill., USA), with BSA as the standard.

With `CN1c2ccccc2N=C(c2ccc(C(=O)O)cc2)c2cc3c(cc21)C(C)(C)CCC3(C)C` [HX630, 4-[5H-2,3-(2,5dimethyl-2,5-hexano)-5-methyldibenzo[b,e]-diazepin-11-yl]benzoic acid] the “Cd36 mRNA level” value (Cd36 mRNA) was “increased” and the “degradation activity towards 125I-labeled oligomeric Aβ1-42” value (rat primary microglia) was “increased”.

With `CC1(C)CCC(C)(C)c2cc(NC(=O)c3ccc(C(=O)O)cc3)ccc21` [Am80, 4-{(5,6,7,8-tetrahydro-5,5,8,8-tetramethyl-2-naphthalenyl)carbamoyl}benzoic acid] the “Aβ levels in APP23 mice, higher dose” value (Aβ40 and Aβ42) was “neither reduced Aβ levels”.
